The target of assay [1] is T1, Recombinant purified human JAK3 (Homo sapiens, UniProt P52333).
T1 construct: purchased Promega V9441
T1 sequence (P52333 1-1124): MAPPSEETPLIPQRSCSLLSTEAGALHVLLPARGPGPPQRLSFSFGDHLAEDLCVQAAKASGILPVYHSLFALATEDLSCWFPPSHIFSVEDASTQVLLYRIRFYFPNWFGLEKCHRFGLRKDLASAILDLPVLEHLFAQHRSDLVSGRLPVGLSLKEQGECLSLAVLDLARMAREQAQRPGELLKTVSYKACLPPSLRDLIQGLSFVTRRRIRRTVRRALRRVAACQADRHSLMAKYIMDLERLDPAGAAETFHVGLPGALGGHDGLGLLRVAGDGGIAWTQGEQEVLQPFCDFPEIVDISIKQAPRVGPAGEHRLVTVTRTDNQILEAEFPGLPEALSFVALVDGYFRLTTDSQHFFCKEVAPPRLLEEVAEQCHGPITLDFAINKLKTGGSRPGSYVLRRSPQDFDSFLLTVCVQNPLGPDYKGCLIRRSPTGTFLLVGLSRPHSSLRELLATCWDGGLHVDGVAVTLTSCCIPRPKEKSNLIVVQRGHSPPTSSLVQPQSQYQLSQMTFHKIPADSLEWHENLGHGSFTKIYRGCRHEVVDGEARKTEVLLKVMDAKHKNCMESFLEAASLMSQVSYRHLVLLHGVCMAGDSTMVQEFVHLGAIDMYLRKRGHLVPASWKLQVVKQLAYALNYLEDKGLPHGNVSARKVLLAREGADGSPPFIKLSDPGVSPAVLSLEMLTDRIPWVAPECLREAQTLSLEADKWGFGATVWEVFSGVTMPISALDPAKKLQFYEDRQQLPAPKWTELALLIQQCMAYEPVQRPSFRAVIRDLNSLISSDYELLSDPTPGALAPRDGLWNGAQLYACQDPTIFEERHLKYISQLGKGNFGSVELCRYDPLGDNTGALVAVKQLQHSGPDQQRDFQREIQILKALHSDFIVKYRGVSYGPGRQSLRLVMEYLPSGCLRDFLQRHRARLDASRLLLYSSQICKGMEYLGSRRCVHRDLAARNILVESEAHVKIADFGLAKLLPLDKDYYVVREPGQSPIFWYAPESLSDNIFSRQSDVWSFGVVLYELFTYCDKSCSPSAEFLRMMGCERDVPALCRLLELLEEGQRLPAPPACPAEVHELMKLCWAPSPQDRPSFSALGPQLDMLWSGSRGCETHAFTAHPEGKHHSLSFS
Briefly: JAK3 kinase inhibitory activity, ADP-Glo kinase assay (Promega V9441). The format is biochemical. The conditions noted are these: ATP 5 uM, 4 ng JAK3 per reaction, 1 hour 30 °C, chemiluminescence. An outline of the steps: (§1)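 IC50 values come from ADP-Glo luminescence after 1 h kinase reactions at 30 °C in 1% DMSO on 0.2 µg/µL Poly(Glu4,Tyr1) substrate. ATP was 10 µM for BTK (8 ng, buffer containing MnCl2) and 5 µM for JAK3 (4 ng), in Tris-Cl pH 7.5/MgCl2/BSA/DTT.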
In general terms: ADP-Glo turns the ADP formed in a reaction into a luminescent signal.

For assay [2], the target named is T2, Recombinant purified human BTK (Homo sapiens, UniProt Q06187).
T2 construct: purchased Promega V9071
Briefly: BTK kinase inhibitory activity, ADP-Glo kinase assay (Promega V9071). Type of assay: biochemical. The conditions noted are these: ATP 10 uM, 8 ng BTK per reaction, 1 hour 30 °C, chemiluminescence. The method, boiled down:
as §1

Among the data in patent EP3478687B1 (Daewoong Pharmaceutical Co., Ltd., priority 2016, dated 2018) are IC50 values, retold here.

Structures can show the parent of a compound that is named as a salt.

T2 sequence (Q06187 whole entry): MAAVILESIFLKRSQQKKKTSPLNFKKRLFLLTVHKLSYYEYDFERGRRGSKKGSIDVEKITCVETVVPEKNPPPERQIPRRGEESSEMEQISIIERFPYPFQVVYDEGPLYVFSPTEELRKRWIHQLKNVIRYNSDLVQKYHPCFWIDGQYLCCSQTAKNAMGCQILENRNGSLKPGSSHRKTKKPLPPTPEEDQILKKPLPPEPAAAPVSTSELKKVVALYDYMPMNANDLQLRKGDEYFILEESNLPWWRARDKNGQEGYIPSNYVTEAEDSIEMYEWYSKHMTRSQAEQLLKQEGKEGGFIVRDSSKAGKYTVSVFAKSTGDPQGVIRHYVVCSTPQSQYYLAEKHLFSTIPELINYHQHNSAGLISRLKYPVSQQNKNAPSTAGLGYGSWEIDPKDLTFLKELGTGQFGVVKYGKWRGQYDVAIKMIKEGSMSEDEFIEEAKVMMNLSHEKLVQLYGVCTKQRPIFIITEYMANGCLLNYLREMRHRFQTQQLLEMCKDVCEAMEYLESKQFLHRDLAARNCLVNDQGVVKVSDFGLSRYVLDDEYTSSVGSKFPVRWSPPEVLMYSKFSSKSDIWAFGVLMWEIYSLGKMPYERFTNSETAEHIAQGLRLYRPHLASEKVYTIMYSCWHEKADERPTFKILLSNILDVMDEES

Turning to `C=CC(=O)N1CCC[C@@H](Nc2nc(Nc3cnn(CC)c3)nc3[nH]cc(C)c23)C1` [Example 79, (R)-1-(3-((2-((1-ethyl-1H-pyrazol-4-yl)amino)-5-methyl-7H-pyrrolo[2,3-d]pyrimidin-4-yl)amino)piperidin-1-yl)prop-2-en-1-one], the results for the 50% inhibitory concentration (IC50) in assay [1] and in assay [2] were 0.4 nM and 9.2 nM, respectively.

For the compound `C=CC(=O)N1CCC[C@@H](Nc2nc(Nc3ccc(-n4nc(C)cc4C)cc3)nc3[nH]cc(C)c23)C1` [Example 80, (R)-1-(3-((2-((4-(3,5-dimethyl-1H-pyrazol-1-yl)phenyl)amino)-5-methyl-7H-pyrrolo[2,3-d]pyrimidin-4-yl)amino)piperidin-1-yl)prop-2-en-1-one], the IC50 came out at 8.4 nM in assay [1] and 33.3 nM in assay [2].

In the case of `C=CC(=O)N1CCC[C@@H](Nc2nc(Nc3ccc4ncsc4c3)nc3[nH]cc(C)c23)C1` [Example 81, (R)-1-(3-((2-(benzo[d]thiazol-6-ylamino)-5-methyl-7H-pyrrolo[2,3-d]pyrimidin-4-yl)amino)piperidin-1-yl)prop-2-en-1-one], the half-inhibitory concentration (IC50) turned out to be 3.8 nM in assay [1] and 25.5 nM in assay [2].

For the compound `C=CC(=O)N1CCC[C@@H](Nc2nc(Nc3cnn(CC)c3)nc3[nH]cc(F)c23)C1` [Example 82, (R)-1-(3-((2-((1-ethyl-1H-pyrazol-4-yl)amino)-5-fluoro-7H-pyrrolo[2,3-d]pyrimidin-4-yl)amino)piperidin-1-yl)prop-2-en-1-one], the results for the IC50 in assay [1] and in assay [2] were 0.3 nM and 0.9 nM, respectively.

`C=CC(=O)N1CCC[C@@H](Nc2nc(Nc3cc(C)ns3)nc3[nH]cc(F)c23)C1` [Example 83, (R)-1-(3-((5-2-((3-methylisothiazol-5-yl)amino)-7H-pyrrolo[2,3-d]pyrimidin-4-yl)amino)piperidin-1-yl)prop-2-en-1-one]: the figures for the IC50 in assay [1] and in assay [2] were 1.2 nM and 3.4 nM, respectively.

As to `C=CC(=O)N1CC[C@@H](C)[C@@H](Nc2nc(Nc3cnn(CC)c3)nc3[nH]cc(F)c23)C1` [Example 84, 1-((3R,4R)-3-((2-((1-ethyl-1H-pyrazol-4-yl)amino)-5-fluoro-7H-pyrrolo[2,3-d]pyrimidin-4-yl)amino)-4-methylpiperidin-1-yl)prop-2-en-1-one], the IC50 in assay [1] turned out to be 3.8 nM; in assay [2], 6.6 nM.

Consider `C=CC(=O)N1CCC[C@@H](Sc2nc(Nc3cnn(CC)c3)nc3[nH]cc(F)c23)C1` [Example 85, (R)-1-(3-((2-((1-ethyl-1H-pyrazol-4-yl)amino)-5-fluoro-7H-pyrrolo[2,3-d]pyrimidin-4-yl)thio)piperidin-1-yl)prop-2-en-1-one], for which the half-inhibitory concentration (IC50) in assay [1] worked out at 1.5 nM; in assay [2], 2.2 nM.

As to `C=CC(=O)N1CC[C@@H](F)[C@@H](Nc2nc(Nc3cnn(CC)c3)nc3[nH]cc(F)c23)C1` [Example 86, 1-((3S,4R)-3-((2-((1-ethyl-1H-pyrazol-4-yl)amino)-5-fluoro-7H-pyrrolo[2,3-d]pyrimidin-4-yl)amino)-4-fluoropiperidin-1-yl)prop-2-en-1-one], the IC50 was determined as 0.4 nM in assay [1] and 1 nM in assay [2].

With `C=CC(=O)N1CCC[C@@H](N(C)c2nc(Nc3cnn(CC)c3)nc3[nH]cc(F)c23)C1` [Example 87, (R)-1-(3-((2-((1-ethyl-1H-pyrazol-4-yl)amino)-5-fluoro-7H-pyrrolo[2,3-d]pyrimidin-4-yl)(methyl)amino)piperidin-1-yl)prop-2-en-1-one], the concentration for half-maximal inhibition (IC50) in assay [1] came out at 16.4 nM; in assay [2] it was 42.2 nM.

Consider `C=CC(=O)N1CCC[C@@H](Nc2nc(Nc3cnn(CC)c3)nc3[nH]cc(C#N)c23)C1` [Example 88, (R)-4-((1-acryloylpiperidin-3-yl)amino)-2-((1-ethyl-1H-pyrazol-4-yl)amino)-7H-pyrrolo [2,3-d] pyrim idine-5-carbonitrile], for which the half-maximal inhibitory concentration (IC50) is 0.2 nM in assay [1] and 1.1 nM in assay [2].

Regarding `C=CC(=O)N1CCC[C@@H](Nc2nc(Nc3cnn(C4CC4)c3)nc3[nH]cc(C#N)c23)C1` [Example 89, (R)-4-((1-acryloylpiperidin-3-yl)amino)-2-((1-cyclopropyl-1H-pyrazol-4-yl)amino)-7H-pyrrolo[2,3-d]pyrimidine-5-carbonitrile], the results for the IC50 in assay [1] and in assay [2] were 0.138 nM and 0.864 nM, respectively.

In the case of `C=CC(=O)N1CCC[C@@H](Nc2nc(Nc3cnn(CC(F)F)c3)nc3[nH]nc(Cl)c23)C1` [Example 90, (R)-1-(3-((3-chloro-6-((1-(2,2-difluoroethyl)-1H-pyrazol-4-yl)amino)-1H-pyrazolo [3,4-d]pyrimidin-4-yl)amino)piperidin-1-yl)prop-2-en-1-one hydrochloride], the IC50 in assay [1] came out at 0.5 nM; in assay [2], 1 nM.

As for `C=CC(=O)N1CCC[C@@H](Nc2nc(Nc3cnn(CC)c3)nc3[nH]nc(Cl)c23)C1` [Example 91, (R)-1-(3-((3-chloro-6-((1-ethyl-1H-pyrazol-4-yl)amino)-1H-pyrazolo[3,4-d]pyrimidin-4-yl)amino)piperidin-1-yl)prop-2-en-1-one hydrochloride], the half-maximal inhibitory concentration (IC50) in assay [1] and in assay [2] was 1.1 nM throughout.

With `C=CC(=O)N1CC[C@@H](C)[C@@H](Nc2nc(Nc3cnn(CC)c3)nc3[nH]nc(Cl)c23)C1` [Example 92, 1-((3R,4R)-3-((3-chloro-6-((1-ethyl-1H-pyrazol-4-yl)amino)-1H-pyrazolo[3,4-d]pyrimidin-4-yl)amino)-4-methylpiperidin-1-yl)prop-2-en-1-one], the figures for the IC50 in assay [1] and in assay [2] were 4.5 nM and 2.1 nM, respectively.

In the case of `C=CC(=O)N1CC[C@@H](C)[C@@H](Nc2nc(Nc3cnn(CC(F)F)c3)nc3[nH]nc(Cl)c23)C1` [Example 93, 1-((3R,4R)-3-((3-chloro-6-((1-(2,2-difluoroethyl)-1H-pyrazol-4-yl)amino)-1H-pyrazolo [3,4-d]pyrimidin-4-yl)amino)-4-methylpiperidin-1-yl)prop-2-en-1-one], the IC50 in assay [1] came to 2 nM; in assay [2] it was 1.3 nM.

Consider `C=CC(=O)N1CC[C@@H](C)[C@@H](Nc2nc(Nc3cnn(C4CC4)c3)nc3[nH]nc(Cl)c23)C1` [Example 94, 1-((3R,4R)-3-((3-chloro-6-((1-cyclopropyl-1H-pyrazol-4-yl)amino)-1H-pyrazolo[3,4-d]pyrimidin-4-yl)amino)-4-methylpiperidin-1-yl)prop-2-en-1-one], for which the concentration for half-maximal inhibition (IC50) in assay [1] is 4.5 nM; in assay [2] it was 1.7 nM.

Turning to `C=CC(=O)N1CCC[C@@H](Nc2nc(Nc3cnn(CCN(CC)CC)c3)nc3[nH]cc(Cl)c23)C1` [Example 95, (R)-1-(3-((5-chloro-2-((1-(2-(diethylamino)ethyl)-1H-pyrazol-4-yl)amino)-7H-pyrrolo[2,3-d]pyrimidin-4-yl)amino)piperidin-1-yl)prop-2-en-1-one], the half-inhibitory concentration (IC50) in assay [1] is 0.5 nM; in assay [2], 5.9 nM.

As for `C=CC(=O)N1CCC[C@@H](Nc2nc(Nc3cnoc3)nc3[nH]cc(Cl)c23)C1` [Example 96, (R)-1-(3-((5-chloro-2-(isoxazol-4-ylamino)-7H-pyrrolo[2,3-d]pyrimidin-4-yl)amino)piperidin-1-yl)prop-2-en-1-one], the IC50 in assay [1] came to 0.7 nM; in assay [2] it was 24 nM.

Consider `C=CC(=O)N1CCC[C@@H](Nc2nc(Nc3ccc(N4CCOCC4)cc3F)nc3[nH]cc(Cl)c23)C1` [Example 97], for which the concentration for half-maximal inhibition (IC50) in assay [1] was over 80 nM; in assay [2] it was 708 nM.

By IC50 is commonly meant the point on the concentration scale where inhibition reaches its midpoint.
